From patent US9308282B2, “[F-18]-labelled L-glutamic acid and L-glutamine derivatives (I), their use and processes for their preparation” (PIRAMAL IMAGING SA, priority 2008, dated 2016)

Assays:
A549 tumour = assay: PET/CT imaging in mice bearing A549 tumours; assay type: in vivo; conditions: 60 min after i.v. 10 MBq, 20 min data acquisition
H460 tumour = assay: PET with rats bearing H460 tumours; assay type: in vivo; conditions: 80 min after i.v. 18 MBq, 20 min data acquisition
[1] = system: A549 and H460 tumour cells; assay: cell uptake of S-configured, F-18-labelled glutamic acid derivatives
Source text: Following labelling with F-18, (2S,4S)-2-amino-4-(3-[F-18]fluoropropyl)pentanedioic acid was examined in cell experiments with A549 and H460 tumour cells (both human non-small-cell bronchial carcinoma cell lines).

## N[C@@H](C[C@H](CCC[18F])C(=O)O)C(=O)O
A549 tumour
  PET/CT image analysis: uptake into the A549 tumour: high uptake
H460 tumour
  PET image analysis: uptake into the H460 tumour: high uptake
[1]
  cellular uptake over time: time-dependent cellular uptake
